Test results as given in publication PMC2229105 (The Journal of General Physiology, 1992).
Like-named read-outs stand apart in the source and are kept apart here.

Tests used:
[1] = tested on: T-type Ca channels (guinea pig atrial cells); experiment: whole-cell patch clamp, tail current analysis, modulated receptor theory; format: cell-based, Cavia porcellus; details: read-out: KI, inactivated state (apparent)
[2] = tested on: T-type Ca channels in GH3 cells; experiment: as above; format: cell-based, Rattus norvegicus; details: read-out: KI; inactivated state (apparent); six experiments

Compound	Kd ([1]; 30-s prepulse)	further results
CC1=C(C(=O)OC(C)C)[C@@H](c2cccc3nonc23)C([N+](=O)[O-])=C(C)N1 [(-)-(R)-202-791]	15.3 nM	
CC(C)COCC(CN(Cc1ccccc1)c1ccccc1)N1CCCC1 (stereo not shown) [bepridil]		Kd ([1]; from block by 0.5 µM drug): 1240 nM
CCOC(=O)C1=C(C)NC(C)=C(C(=O)OC)C1c1cccc(Cl)c1Cl (stereo not shown) [felodipine]		Kd [2]: 680 ± 220 nM
COC(=O)C1=C(C)NC(C)=C(C(=O)OC(C)C)C1c1cccc2nonc12 (stereo not shown) [isradipine]	20.4 nM	
